Tests used:
[1] = cited from earlier work
[2] = tested on: retinal ganglion cells (RGCs); experiment: Retinal ganglion cell counting on retinal flatmounts (Brn3a, Rbpms), microbead eIOP model, subcutaneous NLY01; format: in vivo, mouse; details: 42 days; NLY01 5 mg/kg twice weekly vs NSS; bead eye normalized to BSS eye
[3] = cited from earlier work; remark: listed apart in the source
[4] = tested on: ACSA2+ cells (astrocyte and Müller cell enriched); experiment: qPCR of pan reactive, A1-specific transcripts and C3 in ACSA2+ retinal cells of microbead-injected mice; format: in vivo, mouse; details: NLY01 5 mg/kg s.c. twice weekly vs NSS
CD11b+ CD11c+ cells = experiment: qPCR of Il1a, Tnf, C1qa mRNA in CD11b+ CD11c+ cells sorted from neurosensory retina of microbead-injected mice; format: in vivo, mouse; details: NLY01 5 mg/kg s.c. twice weekly vs NSS
NFκB [5] = experiment: phospho-NFκB/total NFκB ELISA and NFκBIA (IκBα) qPCR in sorted CD11b+ retinal cells of microbead-injected mice; format: in vivo, mouse; details: 42nd day post-injection; CD11b+ CD11c− and CD11b+ CD11c+ cells; NLY01 5 mg/kg s.c. twice weekly vs NSS
Description: FIGS. 11A-11D show NLY01 modulates NFκB signaling in CD11b+ CD11c− and CD11b+ CD11c+ cells. Related to FIGS. 4A-4H and 5A-5H. C57BL6/J (WT) mice were injected either with microbeads (“Bead”, left eye), to increase intraocular pressure (IOP), or with BSS (right eye). Following intraocular injections, mice were randomized to twice weekly subcutaneous NLY01 (5 mg kg^−1 per injection) or normal saline solution (NSS). 42 days post-injection mice were euthanized, neurosensory retina (“NSR”) was harvested and sorted as described in FIG. 9A to isolate CD11b+CD11c− and CD11b+ CD11c+ cells. […] All data presented as mean±SEM. Ordinary one-way ANOVA, *p<0.05, **p<0.01, ***p<0.001, ****p<0.0001.
ACSA2+, CD11b+ CD11c−, and CD11b+ CD11c+ cells were isolated from adult murine retinas using the Miltenyi Adult Brain Dissociation Kit (Miltenyi Biotec, 130-107-677) and MACS magnetic cell separation system. […]
ELISA kits were used to measure protein levels of IL-1α (BMS627, Thermofisher Scientific), TNF-α (BMS607-3, Thermofisher Scientific), C1q (LS-F55223-1, LifeSpan BioSciences), C3 (ab157711, Abcam), and phospho-NFκB/total NFκB (Thermofisher Scientific, 50-246-259) according to the manufacturer's protocol. […] Protein levels were determined by comparing the absorbance produced by the samples with that of a calibration curve. […]

[6] = Intraocular pressure (IOP) measurement in microbead-induced ocular hypertension mouse glaucoma model; details: NLY01 5 mg/kg s.c. twice weekly vs normal saline; IOP across the study
NFκB [7] = details: GLP-1R-dependent manner; cited from earlier work
CD11b+ CD11c− cells = experiment: qPCR of Il1a, Tnf, C1qa mRNA in CD11b+ CD11c- cells sorted from neurosensory retina of microbead-injected mice; format: in vivo, mouse; details: NLY01 5 mg/kg s.c. twice weekly vs NSS
[8] = mouse model of Parkinson's disease

NLY01: pegylated exendin-4 (exenatide); long-acting GLP-1R agonist, obtained from Neuraly
blood-brain barrier penetration ([1]; in vivo): favorable
half-life ([1]; in vivo): extended
NLY01 concentrations in the brain, Parkinson's disease mouse models vs WT animals ([1]; mouse models of Parkinson's disease): higher
RGC death secondary to eIOP, Brn3a+ cell counting [2]: reduced
RGC death secondary to eIOP, RBPMS+ cell counting [2]: reduced
microglia density [3, 8]: reduces
relative IBA1 levels [3, 8]: reduces
A1 astrocyte transformation ([3]; mouse models of PD): blocking
dopaminergic cell death ([3]; mouse models of PD): reducing
microglial production of C1q, TNF-α, and IL-1α ([3]; mouse models of PD): reduce
motor symptoms ([3]; mouse models of PD): improving
expression of A1-specific transcripts in ACSA2+ fraction ([4]; 14th day post-injection): reduced
expression of C3 in ACSA2+ fraction ([4]; 14th day post-injection): reduced
expression of pan reactive transcripts in ACSA2+ fraction ([4]; 14th day post-injection): reduced
expression of A1-specific transcripts in ACSA2+ fraction ([4]; 42nd day post-injection): reduced
expression of C3 in ACSA2+ fraction ([4]; 42nd day post-injection): reduced
expression of pan reactive transcripts in ACSA2+ fraction ([4]; 42nd day post-injection): reduced
CD11b+ CD11c+ expression of C1q (CD11b+ CD11c+ cells; 14th day post-injection): reduced
CD11b+ CD11c+ expression of IL-1α (CD11b+ CD11c+ cells; 14th day post-injection): reduced
CD11b+ CD11c+ expression of TNF-α (CD11b+ CD11c+ cells; 14th day post-injection): reduced
second cell population (CD11b+ CD11c−) expression of C1q (CD11b+ CD11c+ cells; 42nd day post-injection): reduced
second cell population (CD11b+ CD11c−) expression of IL-1α (CD11b+ CD11c+ cells; 42nd day post-injection): reduced
second cell population (CD11b+ CD11c−) expression of TNF-α (CD11b+ CD11c+ cells; 42nd day post-injection): reduced
mRNA levels of IκBα (NFκB [5]): increased
phosphorylated NFκB protein levels (NFκB [5]): decreased
effect on intraocular pressure in microbead- or BSS-injected eyes [6]: no effect
nuclear translocation and phosphorylation of NFκB in brain microglia (NFκB [7]): reduce
CD11b+ CD11c− basal expression of C1q (CD11b+ CD11c− cells; 14th day post-injection): without altering
CD11b+ CD11c− basal expression of IL-1a (CD11b+ CD11c− cells; 14th day post-injection): without altering
CD11b+ CD11c− upregulation of TNF-α (CD11b+ CD11c− cells; 14th day post-injection): reduced
CD11b+ CD11c− expression of C1q (CD11b+ CD11c− cells; 42nd day post-injection): reduced
CD11b+ CD11c− expression of IL-1α (CD11b+ CD11c− cells; 42nd day post-injection): reduced
CD11b+ CD11c− expression of TNF-α (CD11b+ CD11c− cells; 42nd day post-injection): reduced

— patent US20220193201A1, “GLP-1R AGONIST REDUCES RETINAL INFLAMMATION AND NEURON DEATH SECONDARY TO OCULAR HYPERTENSION” (THE TRUSTEES OF THE UNIVERSITY OF PENNSYLVANIA, priority 2020, published 2022)
